From patent US9920339B2, “Methods, reagents and cells for biosynthesizing compounds” (INVISTA North America S.á r.l., priority 2014, dated 2018)

Legend:
[1] = test system: 4-aminobubyrate:2-oxoglutarate transaminase from Streptomyces griseus; details: Yonaha et al., 1985; cited from earlier work
[2] = test system: ω-transaminase from Chromobacterium violaceum (SEQ ID NO: 8); details: Kaulmann et al., 2007; cited from earlier work
[3] = test system: 5-aminovalerate transaminase from Clostridium viride; details: Barker et al., 1987; cited from earlier work
[4] = test system: Mycobacterium smegmatis carboxylate reductase (SEQ ID NO: 3), enhanced by the gene product of sfp; assay: carboxylate reductase enzyme activity assay, NADPH consumption at 340 nm; assay type: biochemical; details: SEQ ID NO 3 with sfp; 2 mM substrate, 10 mM MgCl2, 1 mM ATP, 1 mM NADPH, pH 7.5, room temperature, 20 min; absorbance at 340 nm
Description: (§1) A nucleotide sequence encoding a His-tag was added to the genes from Mycobacterium marinum, Mycobacterium smegmatis, Segniliparus rugosus, Mycobacterium massiliense, and Segniliparus rotundus that encode the carboxylate reductases of SEQ ID NOs: 2-4, 6 and 7, respectively (GenBank Accession Nos. ACC40567.1, ABK71854.1, EFV11917.1, EIV11143.1, and ADG98140.1, respectively) (see FIG. 10) such that N-terminal HIS tagged carboxylate reductases could be produced. Each of the modified genes was cloned into a pET Duet expression vector alongside a sfp gene encoding a His-tagged phosphopantetheine transferase from Bacillus subtilis, both under control of the T7 promoter. Each expression vector was transformed into a BL21[DE3] E. coli host along with the expression vectors from Example 3. Each resulting recombinant E. coli strain was cultivated at 37° C. in a 250 mL shake flask culture containing 50 mL LB media and antibiotic selection pressure, with shaking at 230 rpm. Each culture was induced overnight at 37° C. using an auto-induction media.
(§2) The pellet from each induced shake flask culture was harvested via centrifugation. Each pellet was resuspended and lysed via sonication. The cell debris was separated from the supernatant via centrifugation. The carboxylate reductases and phosphopantetheine transferase were purified from the supernatant using Ni-affinity chromatography, diluted 10-fold into 50 mM HEPES buffer (pH=7.5) and concentrated via ultrafiltration.
(§3) Enzyme activity (i.e., 5-hydroxypentanoate to 5-hydroxypentanal) assays were performed in triplicate in a buffer composed of a final concentration of 50 mM HEPES buffer (pH=7.5), 2 mM 5-hydroxypentanal, 10 mM MgCl2, 1 mM ATP, and 1 mM NADPH. Each enzyme activity assay reaction was initiated by adding purified carboxylate reductase and phosphopantetheine transferase or the empty vector control to the assay buffer containing the 5-hydroxypentanoate and then incubated at room temperature for 20 min. The consumption of NADPH was monitored by absorbance at 340 nm.
(§4) The N-terminal His-tagged carboxylate reductase of SEQ ID NO 2-4 and 7 (see Example 2 and FIG. 10) was assayed using glutarate methyl ester as substrate. The enzyme activity assay was performed in triplicate in a buffer composed of a final concentration of 50 mM HEPES buffer (pH=7.5), 2 mM glutarate methyl ester, 10 mM MgCl2, 1 mM ATP and 1 mM NADPH. The enzyme activity assay reaction was initiated by adding purified carboxylate reductase and phosphopantetheine transferase or the empty vector control to the assay buffer containing the glutarate semialdehyde and then incubated at room temperature for 20 min. The consumption of NADPH was monitored by absorbance at 340 nm.

[5] = target: T1, Mycobacterium marinum carboxylate reductase (SEQ ID NO: 2), enhanced by the gene product of sfp (Mycobacterium marinum, UniProt B2HN69); assay: as above; assay type: biochemical; details: SEQ ID NO 2 with sfp; 2 mM substrate, 10 mM MgCl2, 1 mM ATP, 1 mM NADPH, pH 7.5, room temperature, 20 min; absorbance at 340 nm
T1 construct: His-tag (N); made in house; host or cells: E. coli BL21[DE3], pET Duet
T1 sequence (B2HN69 whole entry): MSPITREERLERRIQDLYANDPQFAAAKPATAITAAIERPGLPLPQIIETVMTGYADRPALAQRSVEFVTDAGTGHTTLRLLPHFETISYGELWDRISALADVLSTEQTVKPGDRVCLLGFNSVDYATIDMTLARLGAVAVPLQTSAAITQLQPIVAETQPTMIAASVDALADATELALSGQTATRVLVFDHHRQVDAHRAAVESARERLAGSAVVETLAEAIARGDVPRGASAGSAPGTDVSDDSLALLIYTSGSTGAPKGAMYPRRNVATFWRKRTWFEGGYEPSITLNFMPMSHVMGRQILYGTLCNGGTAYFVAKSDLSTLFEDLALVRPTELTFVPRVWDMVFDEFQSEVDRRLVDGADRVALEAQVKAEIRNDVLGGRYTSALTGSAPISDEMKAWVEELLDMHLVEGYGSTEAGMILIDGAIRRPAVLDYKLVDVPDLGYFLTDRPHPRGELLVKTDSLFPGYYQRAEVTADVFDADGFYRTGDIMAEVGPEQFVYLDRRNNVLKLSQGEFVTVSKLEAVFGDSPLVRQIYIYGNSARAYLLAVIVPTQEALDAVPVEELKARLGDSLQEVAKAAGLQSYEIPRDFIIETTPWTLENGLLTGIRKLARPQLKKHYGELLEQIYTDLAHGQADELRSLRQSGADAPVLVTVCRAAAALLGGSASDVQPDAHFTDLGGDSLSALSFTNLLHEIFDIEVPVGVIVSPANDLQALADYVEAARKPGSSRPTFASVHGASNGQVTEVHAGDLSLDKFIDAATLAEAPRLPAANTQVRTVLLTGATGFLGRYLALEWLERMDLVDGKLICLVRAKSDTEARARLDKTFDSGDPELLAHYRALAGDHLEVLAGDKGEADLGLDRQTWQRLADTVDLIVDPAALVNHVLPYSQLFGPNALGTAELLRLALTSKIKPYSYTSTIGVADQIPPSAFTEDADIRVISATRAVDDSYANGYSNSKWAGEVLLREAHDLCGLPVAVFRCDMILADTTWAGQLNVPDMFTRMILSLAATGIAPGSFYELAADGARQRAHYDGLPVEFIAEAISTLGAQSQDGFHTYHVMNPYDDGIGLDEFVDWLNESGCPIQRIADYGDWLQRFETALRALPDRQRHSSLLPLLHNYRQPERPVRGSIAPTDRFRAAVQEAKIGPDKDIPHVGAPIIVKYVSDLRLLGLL
Description: as §1, §2, §3, §4

[6] = test system: Segniliparus rugosus carboxylate reductase (SEQ ID NO: 4), enhanced by the gene product of sfp; assay: as above; assay type: biochemical; details: SEQ ID NO 4 with sfp; 2 mM substrate, 10 mM MgCl2, 1 mM ATP, 1 mM NADPH, pH 7.5, room temperature, 20 min; absorbance at 340 nm
Description: as §1, §2, §3, §4

[7] = test system: Segniliparus rotundus carboxylate reductase (SEQ ID NO: 7), enhanced by the gene product of sfp; assay: as above; assay type: biochemical; details: SEQ ID NO 7 with sfp; 2 mM substrate, 10 mM MgCl2, 1 mM ATP, 1 mM NADPH, pH 7.5, room temperature, 20 min; absorbance at 340 nm
Description: as §1
The pellet from each induced shake flask culture was harvested via centrifugation. Each pellet was resuspended and lysed via sonication. The cell debris was separated from the supernatant via centrifugation. […]
Enzyme activity (i.e., 5-hydroxypentanoate to 5-hydroxypentanal) assays were performed in triplicate in a buffer composed of a final concentration of 50 mM HEPES buffer (pH=7.5), 2 mM 5-hydroxypentanal, 10 mM MgCl2, 1 mM ATP, and 1 mM NADPH. […] The consumption of NADPH was monitored by absorbance at 340 nm.
The N-terminal His-tagged carboxylate reductase of SEQ ID NO 7 (see Example 2 and FIG. 10) was assayed using glutarate semialdehyde as substrate. […] The consumption of NADPH was monitored by absorbance at 340 nm.
The N-terminal His-tagged carboxylate reductase of SEQ ID NO 2-4 and 7 (see Example 2 and FIG. 10) was assayed using glutarate methyl ester as substrate. […] The consumption of NADPH was monitored by absorbance at 340 nm.

[8] = test system: diamine transaminase from E. coli strain B; details: Kim, 1964; cited from earlier work
gene product of ygjG = gene product of ygjG (Escherichia coli, UniProt P42588); details: Samsonova et al., 2003; cited from earlier work
gene product of ygjG, sequence (P42588 whole entry): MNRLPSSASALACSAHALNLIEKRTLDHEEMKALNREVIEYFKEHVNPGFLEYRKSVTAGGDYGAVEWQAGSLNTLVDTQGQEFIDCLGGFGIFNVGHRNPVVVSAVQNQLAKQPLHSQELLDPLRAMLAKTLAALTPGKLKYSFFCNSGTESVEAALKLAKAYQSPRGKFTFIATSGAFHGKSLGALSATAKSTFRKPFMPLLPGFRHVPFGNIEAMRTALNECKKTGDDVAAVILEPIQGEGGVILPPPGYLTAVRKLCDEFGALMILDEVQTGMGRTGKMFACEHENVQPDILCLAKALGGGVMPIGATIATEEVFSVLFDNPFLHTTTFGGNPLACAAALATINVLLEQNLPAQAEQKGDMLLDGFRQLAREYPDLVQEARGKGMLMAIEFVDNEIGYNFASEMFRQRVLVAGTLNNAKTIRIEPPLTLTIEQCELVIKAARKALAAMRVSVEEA

[9] = target: T2, Escherichia coli ω-transaminase (SEQ ID NO: 12) (Escherichia coli, UniProt P42588); assay: ω-transaminase enzyme activity assay, amine substrate plus pyruvate to L-alanine (cell free extract); assay type: biochemical; details: reverse direction, 10 mM substrate, 10 mM pyruvate, 100 μM pyridoxyl 5′ phosphate, pH 7.5, 25° C., 4 h, L-alanine by RP-HPLC
T2 construct: His-tag (N); made in house; host or cells: E. coli BL21[DE3], pET21a
T2 sequence (P42588 whole entry): as above
Description: (§5) A nucleotide sequence encoding an N-terminal His-tag was added to the Chromobacterium violaceum, Pseudomonas aeruginosa, Pseudomonas syringae, Rhodobacter sphaeroide, Escherichia coli and Vibrio fluvialis genes encoding the ω-transaminases of SEQ ID NOs: 8-13, respectively (see FIG. 10) such that N-terminal HIS tagged ω-transaminases could be produced. The modified genes were cloned into a pET21a expression vector under the T7 promoter. Each expression vector was transformed into a BL21[DE3] E. coli host. Each resulting recombinant E. coli strain were cultivated at 37° C. in a 250 mL shake flask culture containing 50 mL LB media and antibiotic selection pressure, with shaking at 230 rpm. Each culture was induced overnight at 16° C. using 1 mM IPTG.
(§6) The pellet from each induced shake flask culture was harvested via centrifugation. Each pellet was resuspended and lysed via sonication. The cell debris was separated from the supernatant via centrifugation and the cell free extract was used immediately in enzyme activity assays.
(§7) Enzyme activity assays in the reverse direction (i.e., 5-aminopentanol to 5-oxopentanol) were performed in a buffer composed of a final concentration of 50 mM HEPES buffer (pH=7.5), 10 mM 5-aminopentanol, 10 mM pyruvate, and 100 μM pyridoxyl 5′ phosphate. Each enzyme activity assay reaction was initiated by adding cell free extract of the ω-transaminase gene product or the empty vector control to the assay buffer containing the 5-aminopentanol and then incubated at 25° C. for 4 h, with shaking at 250 rpm. The formation of L-alanine was quantified via RP-HPLC.
as §5, with “and” for “Rhodobacter sphaeroide,”, “coli” for “coli and Vibrio fluvialis”, “8-10 and 12,” for “8-13,”
as §7, with “cadaverine” for “5-aminopentanol”, “5-aminopentanal)” for “5-oxopentanol)”, “cadaverine,” for “5-aminopentanol,”
(§8) The activity of the N-terminal His-tagged ω-transaminases of SEQ ID NOs: 8, 10-13 (see Example 3, and FIG. 10) for converting N5-acetyl-1,5-diaminopentane to N5-acetyl-5-aminopentanal was assayed using a buffer composed of a final concentration of 50 mM HEPES buffer (pH=7.5), 10 mM N5-acetyl-1,5-diaminopentane, 10 mM pyruvate and 100 μM pyridoxyl 5′ phosphate. Each enzyme activity assay reaction was initiated by adding a cell free extract of the ω-transaminase or the empty vector control to the assay buffer containing the N5-acetyl-1,5-diaminopentane then incubated at 25° C. for 4 h, with shaking at 250 rpm. The formation of L-alanine was quantified via RP-HPLC.
(§9) The activity of the N-terminal His-tagged ω-transaminases of SEQ ID NOs: 8-13 (see Example 3, and FIG. 10) for converting 1-aminopentane to pentanal was assayed using a buffer composed of a final concentration of 50 mM HEPES buffer (pH=7.5), 10 mM 1-aminopentane, 10 mM pyruvate and 100 μM pyridoxyl 5′ phosphate. […]

[10] = test system: Pseudomonas syringae ω-transaminase (SEQ ID NO: 10); assay: as above; assay type: biochemical; details: reverse direction, 10 mM substrate, 10 mM pyruvate, 100 μM pyridoxyl 5′ phosphate, pH 7.5, 25° C., 4 h, L-alanine by RP-HPLC
Description: as §5, §6, §7
as §5, with “and” for “Rhodobacter sphaeroide,”, “coli” for “coli and Vibrio fluvialis”, “8-10 and 12,” for “8-13,”
as §7, with “cadaverine” for “5-aminopentanol”, “5-aminopentanal)” for “5-oxopentanol)”, “cadaverine,” for “5-aminopentanol,”
as §8, §9

[11] = test system: Chromobacterium violaceum ω-transaminase (SEQ ID NO: 8); assay: as above; assay type: biochemical; details: reverse direction, 10 mM substrate, 10 mM pyruvate, 100 μM pyridoxyl 5′ phosphate, pH 7.5, 25° C., 4 h, L-alanine by RP-HPLC
Description: (§10) A nucleotide sequence encoding an N-terminal His-tag was added to the genes from Chromobacterium violaceum and Rhodobacter sphaeroides encoding the ω-transaminases of SEQ ID NOs: 8 and 10 respectively (see FIG. 10) such that N-terminal HIS tagged ω-transaminases could be produced. Each of the resulting modified genes was cloned into a pET21a expression vector under control of the T7 promoter and each expression vector was transformed into a BL21[DE3] E. coli host. The resulting recombinant E. coli strains were cultivated at 37° C. in a 250 mL shake flask culture containing 50 mL LB media and antibiotic selection pressure, with shaking at 230 rpm. Each culture was induced overnight at 16° C. using 1 mM IPTG.
as §6
as §7, with “5-aminopentanoate” for “5-aminopentanol”, “glutarate semialdehyde)” for “5-oxopentanol)”, “5-aminopentanoate,” for “5-aminopentanol,”, “pyruvate” for “pyruvate,”, “and” for “and then”, “L-alanine from pyruvate” for “L-alanine”
as §5, §7
as §5, with “and” for “Rhodobacter sphaeroide,”, “coli” for “coli and Vibrio fluvialis”, “8-10 and 12,” for “8-13,”
Enzyme activity assays in the reverse direction (i.e., cadaverine to 5-aminopentanal) were performed in a buffer composed of a final concentration of 50 mM HEPES buffer (pH=7.5), 10 mM cadaverine, 10 mM pyruvate, and 100 μM pyridoxyl 5′ phosphate. […]

[12] = test system: Pseudomonas aeruginosa ω-transaminase (SEQ ID NO: 9); assay: as above; assay type: biochemical; details: reverse direction, 10 mM substrate, 10 mM pyruvate, 100 μM pyridoxyl 5′ phosphate, pH 7.5, 25° C., 4 h, L-alanine by RP-HPLC
Description: as §5, §6, §7
as §5, with “and” for “Rhodobacter sphaeroide,”, “coli” for “coli and Vibrio fluvialis”, “8-10 and 12,” for “8-13,”
as §7, with “cadaverine” for “5-aminopentanol”, “5-aminopentanal)” for “5-oxopentanol)”, “cadaverine,” for “5-aminopentanol,”
as §8, with “8-13” for “8, 10-13”, “1-aminopentane” for “N5-acetyl-1,5-diaminopentane”, “pentanal” for “N5-acetyl-5-aminopentanal”, “1-aminopentane,” for “N5-acetyl-1,5-diaminopentane,”
as §9, with “1-aminoheptane” for “1-aminopentane”, “heptanal” for “pentanal”, “1-aminoheptane,” for “1-aminopentane,”

[13] = test system: transaminase of SEQ ID NO 10; assay: ω-transaminase enzyme activity assay in the forward direction, glutarate semialdehyde plus L-alanine to pyruvate; assay type: biochemical, Pseudomonas syringae; details: 10 mM glutarate semialdehyde, 10 mM L-alanine, 100 μM pyridoxyl 5′ phosphate, pH 7.5, 25° C., 4 h, pyruvate by RP-HPLC
Description: as §10, §6
Enzyme activity in the forward direction (i.e., glutarate semialdehyde to 5-aminopentanoate) was confirmed for the transaminase of SEQ ID NO 10. Enzyme activity assays were performed in a buffer composed of a final concentration of 50 mM HEPES buffer (pH=7.5), 10 mM glutarate semialdehyde, 10 mM L-alanine and 100 μM pyridoxyl 5′ phosphate. […] The formation of pyruvate was quantified via RP-HPLC.

[14] = test system: Chromobacterium violaceum ω-transaminase (SEQ ID NO: 8); assay: ω-transaminase enzyme activity assay, amine substrate plus pyruvate to L-alanine (cell free extract); assay type: biochemical; details: forward (amine-forming) direction, inferred from the reverse assay

**Q.** Which results are given for `NCCCCCC(=O)O` [6-aminohexanoate]?
**A.** activity for the conversion to adipate semialdehyde [1]: demonstrated analogous activity; accepted as amino donor [2]: demonstrated analogous activity; activity for the conversion to adipate semialdehyde [3]: demonstrated analogous activity

**Q.** Which “accepted as substrate as confirmed against the empty vector control” value (“accepted as substrate as confirmed” below) [4] does the source give for `COC(=O)CCCC(=O)O` [glutarate methyl ester] here?
**A.** accepted

**Q.** And the “accepted as substrate as confirmed” value [5]?
**A.** accepted

**Q.** And the “accepted as substrate as confirmed” value [6]?
**A.** accepted

**Q.** And the “accepted as substrate as confirmed” value [7]?
**A.** accepted

**Q.** For `NCCCCCN` [cadaverine], which “activity for the substrate” value [8] is on record?
**A.** demonstrated activity

**Q.** And the “accepted as diamine substrate” value (gene product of ygjG)?
**A.** accepts

**Q.** What about the “accepted as substrate as confirmed” value [9] of the same molecule?
**A.** accepted

**Q.** What about the “accepted as substrate as confirmed” value [10] of the same molecule?
**A.** accepted

**Q.** And the “accepted as substrate as confirmed” value [11]?
**A.** accepted

**Q.** What about the “accepted as substrate as confirmed” value [12] of the same molecule?
**A.** accepted

**Q.** With `O=CCCCC(=O)O` [glutarate semialdehyde] as the molecule, how does the “accepted as substrate as confirmed” value [13] read?
**A.** accepted

**Q.** What about the “accepted as substrate, concluded from the reversibility of the ω-transaminase activity” value [14] of the same molecule?
**A.** accepted

**Q.** And the “accepted as substrate as confirmed” value [7]?
**A.** accepted
